Measured values: US20220409576A1, “NANO-PARTICULATE COMPOSITIONS FOR STIMULATING HOST INNATE IMMUNE RESPONSES FOR THERAPEUTIC APPLICATIONS” (priority 2019, published 2022)

Assays:
intracellular S. aureus = assay: Bactericidal activity of RAW 264.7 macrophages against intracellular S. aureus (antibiotic protection assay, viable colony number); format: cell-based, Staphylococcus aureus; settings: cells with IONPs 3 mg/mL + VC 500 μM plus chelator BIP 500 μM or scavenger THI 200 mM, FIG. 3C
Procedure: A. The quantification of ROS generation in the RAW 264.7 cells treated with varying concentration of IONPs (0-3 mg/mL). B. The colony number of viable bacteria (S. aureus) in the lysed RAW 264.7 macrophages treated with varying concentration of IONPs (0-3 mg/mL) following the exposure of live S. aureus.
(A-B) The quantification of ROS generation (A) and viable colony number of S. aureus (B) in the RAW 264.7 cells treated with VC (500 μM) alone, IONP (3 mg/mL) alone, or IONP (3 mg/mL)+VC (500 μM). (C-D) The quantification of ROS generation (C) and viable colony number of S. aureus (D) in the RAW 264.7 cells treated with IONP (3 mg/mL) alone, or IONP (3 mg/mL)+H2O2 (100 μM). E. Representative images of surviving S. aureus colony on agar plates from lysed RAW264.7 macrophages treated with H2O2 (100 μM), IONP (3 mg/mL), or IONP+H2O2. N=3-5 per group, *p<0.05
A. The intracellular level of ferrous iron (Fe2+) in RAW 264.7 cells treated with IONPs (3 mg/mL) alone, IONPs with VC (500 μM), or IONPs with VC and BIP (iron chelator, 500 μM). […] The bactericidal activity of RAW 264.7 cells treated with IONPs (3 mg/mL) with VC (500 μM), IONPs with VC and BIP (500 μM), or IONPs with VC and TIH (200 mM), assessed by antibiotic protection assay. *p<0.05, N=3-5 per group. […]

RAW 264.7 cells = assay: Intracellular hydroxyl radical generation in RAW 264.7 cells; format: cell-based; settings: RAW 264.7 cells with IONPs 3 mg/mL + VC 500 μM, BIP 500 μM, 24 h, FIG. 3B
Procedure: A. The intracellular level of ferrous iron (Fe2+) in RAW 264.7 cells treated with IONPs (3 mg/mL) alone, IONPs with VC (500 μM), or IONPs with VC and BIP (iron chelator, 500 μM). B. The intracellular level of hydroxyl radical concentration in RAW 264.7 cells treated with IONPs (3 mg/mL) alone, IONPs with VC (500 μM), or in combination with BIP (500 μM) for 24 h. C. The bactericidal activity of RAW 264.7 cells treated with IONPs (3 mg/mL) with VC (500 μM), IONPs with VC and BIP (500 μM), or IONPs with VC and TIH (200 mM), assessed by antibiotic protection assay. *p<0.05, N=3-5 per group.
To further determine if the VC-mediated ROS generation and bactericidal activity were associated with a Fenton reaction due to increased release of Fe^2+, the levels of Fe^2+ were compared between RAW 264.7 cells treated with IONPs alone and IONPs with VC. […] Among various forms of ROS, hydroxyl radical ([…]) is highly cytotoxic by causing oxidative damage to DNA and cell membrane. In the Fenton reaction-mediated generation of ROS, the oxidation of Fe^2+ by hydrogen peroxide (H2O2) produces highly reactive hydroxyl radical.

SMILES: c1ccc(-c2ccccn2)nc1 [BIP]
- IONPs/VC-induced bactericidal activity of RAW 264.7 cells (intracellular S. aureus): decrease in bactericidal activity
- IONPs and VC-induced generation of hydroxyl radicals (RAW 264.7 cells): significantly decreased
